Literature values in patent US20260007780A1, “LIQUID VEHICLE FORMULATION FOR ENTEROGRAPHY EXAMINATION” (priority 2008, published 2026).

Structure (SMILES): CC(=O)Nc1c(I)c(NC(C)=O)c(I)c(C(=O)O)c1I [Diatrizoic acid, diatrizoic acid]
- solubility in water: practically insoluble in water
